Data set [1] can be described thus: Particle size by laser diffraction analysis. It is filed as physicochemical. To be noted: median by weight, 10% and 90% undersize limits in parentheses. Here is the method:
(§1) Particle sizes are shown as median values by weight as measured by laser diffraction analysis (Sympatec Helos […], Germany). […] Surface areas were measured by steady state […] (Johansson et al, Int. […] The results are shown as the mean value from three measurements. The standard deviation is given in parentheses.

Data set [2] in a line: Surface area by permeametry. To be noted: permeametry with Blaine apparatus; mean of three, SD in parentheses. It is filed as physicochemical. On the procedure:
as §1

The structures appear in SMILES notation.

With `O=C([O-])c1ccccc1O.[Na+]` [Sodium salicylate, sodium salicylate], the “Particle Size” value in data set [1] is listed as 3.17 (0.8, 10.8) μm. Also, the “Surface Area” value in data set [2] is 1.77 (0.13) m^2/g.

Values taken from patent publication US20080317863A1, “Pharmaceutical Compositions Useful in the Transmucosal Administration of Drugs” (priority 2005, published 2008).
